Measurements published in US20230285405A1, “Pharmaceuticals for Treating or Preventing Nidoviruses and Picornaviruses” (priority 2020, published 2023).
Counter-ions that a name gives are not always drawn. Like-named read-outs stand apart in the source and are kept apart here.

Key:
[1] = tested on: OC43; test: Drug screening: OC43 nucleoprotein staining in infected A549-mRuby cells; type: cell-based, human beta coronavirus OC43; details: for activity at 10 µM: Betacoronavirus 1, OC43, 96 h
Method: A549-mRuby cells were seeded (3,000 cells per well) in nine 384-well plates using Multidrop combi. Cells were seeded in a final volume of 30 μl with DMEM+10% BCS. The following day, 20 μl of OC43 were added (MOI 0.3) and incubated at 33° C., 5% CO2 for 1 hour. 50 nl from the Selleck FDA-approved drug library (cat #L1300, Selleck) were added (1:1,000 dilution). Two columns (32 wells) were left uninfected and two columns were treated with DMSO and virus (no drug control). Cells were imaged using the IncuCyte S3 to measure cell numbers at day 0. Cells were incubated for 4 days at 33° C., 5% CO2 and were stained for OC43 nucleoprotein. All the following steps were performed at room temperature. Cells were fixed in 50 μl 4% PFA/PBS for 15 min, blocked with 50 μl 10% BSA+0.5% Triton X-100 in PBS for 30 minutes, stained with 50 μl anti-OC43 (cat #MAB9013, Milipore) diluted 1:2,000 in 2% BSA+0.1% Triton X-100 in PBS for 1 hour, washed with 50 μl PBS three times, stained with anti-mouse-AlexaFluor488 diluted 1:1,000 in 2% BSA+0.1% Triton X-100 in PBS for 1 hour, washed with 50 μl PBS three times and imaged on the IncuCyte S3 (day 4). The screen was performed twice.
(§1) The following parameters were extracted from the images: number of cells at day 0, number of cells at day 4 and total OC43 staining intensity at day 4. For analysis, OC43 staining intensity was normalized to the number of cells in the well and further normalized to the mean of the no drug controls, which was set to 100. […] For each plate, a drug was considered as a putative hit if it reduced OC43 staining by over 3 standard deviations from the mean of the no drug controls. Drugs were considered hits if they were not toxic and reduced OC43 staining by over 3 standard deviations in both repeats.
(§2) A library of 1,900 clinically used drugs was screened, the drugs either approved for human use or having extensive safety data in humans (Phase 2 or 3 clinical trials), for their ability to inhibit OC43 infection of the human lung epithelial cell line A549 (expressing an H2B-mRuby nuclear reporter). One day after plating, cells were infected at an MOI of 0.3, incubated at 33° C. for 1 hour and drugs were added to a final concentration of 10 μM. Cells were then incubated at 33° C. for 4 days, fixed and stained for the presence of the viral nucleoprotein. The cells were imaged at day 0 (following drug addition) and day 4 (after staining) to determine the drugs effect on cell growth and OC43 infection.

[2] = tested on: A549-mRuby cells; test: Drug screening: effect on cell growth (cell number day 4 / day 0); details: 10 μM drug; for Growth_1: number of cells at day 4 divided by number of cells at day 0 / toxic_1: repeat #1; for Growth_2: number of cells at day 4 divided by number of cells at day 0 / toxic_2: repeat #2
Method: A549-mRuby cells were seeded (3,000 cells per well) in nine 384-well plates using Multidrop combi. Cells were seeded in a final volume of 30 μl with DMEM+10% BCS. The following day, 20 μl of OC43 were added (MOI 0.3) and incubated at 33° C., 5% CO2 for 1 hour. 50 nl from the Selleck FDA-approved drug library (cat #L1300, Selleck) were added (1:1,000 dilution). Two columns (32 wells) were left uninfected and two columns were treated with DMSO and virus (no drug control). Cells were imaged using the IncuCyte S3 to measure cell numbers at day 0. Cells were incubated for 4 days at 33° C., 5% CO2 and were stained for OC43 nucleoprotein. All the following steps were performed at room temperature. […] The screen was performed twice.
as §1, §2

[3] = 10 μM drug, MOI 0.3, 4 days, OC43 staining normalized to no-drug controls, mean of the two screen repeats
[4] = 10 μM drug, MOI 0.3, 4 days, normalized to no-drug controls in the same plate, repeat #1
[5] = 10 μM drug, MOI 0.3, 4 days, normalized to no-drug controls in the same plate, repeat #2
[6] = 10 μM drug, MOI 0.3, 4 days, OC43 staining normalized to no-drug controls, mean of the two screen repeats, read-out: OC43_mean
[7] = 10 μM drug, MOI 0.3, 4 days, normalized to no-drug controls in the same plate, repeat #1, read-out: OC43_1: % staining of OC43 in screen repeat #1
[8] = 10 μM drug, MOI 0.3, 4 days, normalized to no-drug controls in the same plate, repeat #2, read-out: OC43_2: % staining of OC43 in screen repeat #2

## Ifenprodil Tartrate
[1]; [3]
  OC43_mean: 25.6%
[1]; [4]
  OC43_1: % staining of OC43 in screen repeat #1: 29.0%
[1]; [5]
  OC43_2: % staining of OC43 in screen repeat #2: 22.1%
[1]; 10 μM drug, repeat #1
  hit_1: 1
[1]; 10 μM drug, repeat #2
  hit_2: 1
[2]
  Growth_1: number of cells at day 4 divided by number of cells at day 0: 4.6
  toxic_1: 0
  Growth_2: number of cells at day 4 divided by number of cells at day 0: 4.9
  toxic_2: 0

## Prochlorperazine dimaleate salt
[1]; [3]
  OC43_mean: 40.2%
[1]; [4]
  OC43_1: % staining of OC43 in screen repeat #1: 47.2%
[1]; [5]
  OC43_2: % staining of OC43 in screen repeat #2: 33.1%
[1]; 10 μM drug, repeat #1
  hit_1: 1
[1]; 10 μM drug, repeat #2
  hit_2: 1
[2]
  Growth_1: number of cells at day 4 divided by number of cells at day 0: 3.1
  toxic_1: 0
  Growth_2: number of cells at day 4 divided by number of cells at day 0: 3.1
  toxic_2: 0

## CN(C)N(C)C(=O)[C@@]1(Cc2ccccc2)CCCN(C(=O)[C@@H](Cc2c[nH]c3ccccc23)NC(=O)C(C)(C)N)C1 [Anamorelin]
[1]; 10 μM drug, repeat #1
  hit_1: 1
[1]; 10 μM drug, repeat #2
  hit_2: 1
[1]; [6]
  activity at 10 µM: 38.8%
[1]; [7]
  activity at 10 µM: 32%
[1]; [8]
  activity at 10 µM: 45.6%
[2]
  Growth_1: number of cells at day 4 divided by number of cells at day 0: 5.2
  toxic_1: 0
  Growth_2: number of cells at day 4 divided by number of cells at day 0: 5.5
  toxic_2: 0

## CN(C)CCCOc1nn(Cc2ccccc2)c2ccccc12 [Benzydamine HCl]
[1]; 10 μM drug, repeat #1
  hit_1: 1
[1]; 10 μM drug, repeat #2
  hit_2: 1
[1]; [6]
  activity at 10 µM: 25.9%
[1]; [7]
  activity at 10 µM: 26.2%
[1]; [8]
  activity at 10 µM: 25.6%
[2]
  Growth_1: number of cells at day 4 divided by number of cells at day 0: 4.9
  toxic_1: 0
  Growth_2: number of cells at day 4 divided by number of cells at day 0: 4.6
  toxic_2: 0

## CC(C)NCC(O)COc1cccc2ccccc12 (stereo not drawn) [Propranolol HCl]
[1]; 10 μM drug, repeat #1
  hit_1: 1
[1]; 10 μM drug, repeat #2
  hit_2: 1
[1]; [7]
  activity at 10 µM: 21.6%
[1]; [8]
  activity at 10 µM: 27.7%
[1]; read-out: OC43_mean
  activity at 10 µM: 24.7%
[2]
  Growth_1: number of cells at day 4 divided by number of cells at day 0: 5.6
  toxic_1: 0
  Growth_2: number of cells at day 4 divided by number of cells at day 0: 4.1
  toxic_2: 0

## CNCCCC12CCC(c3ccccc31)c1ccccc12 [Maprotiline HCl]
[1]; 10 μM drug, repeat #1
  hit_1: 1
[1]; 10 μM drug, repeat #2
  hit_2: 1
[1]; [6]
  activity at 10 µM: 26%
[1]; [7]
  activity at 10 µM: 27%
[1]; [8]
  activity at 10 µM: 25.1%
[2]
  Growth_1: number of cells at day 4 divided by number of cells at day 0: 3.5
  toxic_1: 0
  Growth_2: number of cells at day 4 divided by number of cells at day 0: 3.1
  toxic_2: 0

## COc1ccc(NC(=O)c2ccc(C(=N)N(C)C)cc2)c(C(=O)Nc2ccc(Cl)cn2)c1 [Betrixaban maleate]
[1]; 10 μM drug, repeat #1
  hit_1: 1
[1]; 10 μM drug, repeat #2
  hit_2: 1
[1]; [6]
  activity at 10 µM: 26.9%
[1]; [7]
  activity at 10 µM: 32%
[1]; [8]
  activity at 10 µM: 21.8%
[2]
  Growth_1: number of cells at day 4 divided by number of cells at day 0: 4.6
  toxic_1: 0
  Growth_2: number of cells at day 4 divided by number of cells at day 0: 5.7
  toxic_2: 0

## COc1cc2c(cc1OC)CN(CCc1ccc(NC(=O)c3cccc4c(=O)c5cccc(OC)c5[nH]c34)cc1)CC2 [Elacridar (GF120918), Elacridar]
[1]; 10 μM drug, repeat #1
  hit_1: 1
[1]; 10 μM drug, repeat #2
  hit_2: 1
[1]; [6]
  activity at 10 µM: 31.4%
[1]; [7]
  activity at 10 µM: 24.4%
[1]; [8]
  activity at 10 µM: 38.3%
[2]
  Growth_1: number of cells at day 4 divided by number of cells at day 0: 4.6
  toxic_1: 0
  Growth_2: number of cells at day 4 divided by number of cells at day 0: 5.8
  toxic_2: 0

## CN1CCN(CCCN2c3ccccc3Sc3ccc(C(F)(F)F)cc32)CC1.Cl.Cl [Trifluoperazine 2HCl]
[1]; [3]
  OC43_mean: 31.6%
[1]; [4]
  OC43_1: % staining of OC43 in screen repeat #1: 33.8%
[1]; [5]
  OC43_2: % staining of OC43 in screen repeat #2: 29.5%
[1]; 10 μM drug, repeat #1
  hit_1: 1
[1]; 10 μM drug, repeat #2
  hit_2: 1
[2]
  Growth_1: number of cells at day 4 divided by number of cells at day 0: 2.3
  toxic_1: 0
  Growth_2: number of cells at day 4 divided by number of cells at day 0: 2.1
  toxic_2: 0

## CN1CCC(OC(c2ccccc2)c2ccccc2)CC1 [Diphenylpyraline HCl]
[1]; 10 μM drug, repeat #1
  hit_1: 1
[1]; 10 μM drug, repeat #2
  hit_2: 1
[1]; [7]
  activity at 10 µM: 33.2%
[1]; [8]
  activity at 10 µM: 51.6%
[1]; read-out: OC43_mean
  activity at 10 µM: 42.4%
[2]
  Growth_1: number of cells at day 4 divided by number of cells at day 0: 6.0
  toxic_1: 0
  Growth_2: number of cells at day 4 divided by number of cells at day 0: 4.2
  toxic_2: 0

## CN1CCN(CCCN2c3ccccc3Sc3ccc(Cl)cc32)CC1 [Prochlorperazine Dimaleate]
[1]; 10 μM drug, repeat #1
  hit_1: 1
[1]; 10 μM drug, repeat #2
  hit_2: 1
[1]; [6]
  activity at 10 µM: 22.6%
[1]; [7]
  activity at 10 µM: 20.2%
[1]; [8]
  activity at 10 µM: 25%
[2]
  Growth_1: number of cells at day 4 divided by number of cells at day 0: 3.1
  toxic_1: 0
  Growth_2: number of cells at day 4 divided by number of cells at day 0: 3.0
  toxic_2: 0

## Carvedilol Phosphate
[1]; [3]
  OC43_mean: 28.9%
[1]; [4]
  OC43_1: % staining of OC43 in screen repeat #1: 32.3%
[1]; [5]
  OC43_2: % staining of OC43 in screen repeat #2: 25.5%
[1]; 10 μM drug, repeat #1
  hit_1: 1
[1]; 10 μM drug, repeat #2
  hit_2: 1
[2]
  Growth_1: number of cells at day 4 divided by number of cells at day 0: 4.4
  toxic_1: 0
  Growth_2: number of cells at day 4 divided by number of cells at day 0: 2.9
  toxic_2: 0

## CN1CCN(CCOc2cc(OC3CCOCC3)c3c(Nc4c(Cl)ccc5c4OCO5)ncnc3c2)CC1 [Saracatinib (AZD0530), Saracatinib]
[1]; 10 μM drug, repeat #1
  hit_1: 1
[1]; 10 μM drug, repeat #2
  hit_2: 1
[1]; [6]
  activity at 10 µM: 22.7%
[1]; [7]
  activity at 10 µM: 21.2%
[1]; [8]
  activity at 10 µM: 24.1%
[2]
  Growth_1: number of cells at day 4 divided by number of cells at day 0: 3.1
  toxic_1: 0
  Growth_2: number of cells at day 4 divided by number of cells at day 0: 4.0
  toxic_2: 0
